Reference: the NIST ThermoML archive (doi:10.1021/je2006049)
“And” between values parts separate entries of the source, which are not always exact repeats. Identical values can stand only once.

Details: Liquid; for electrical conductivity / mass density: 101.33 kPa; for electrical conductivity: Alternating current cell with electrodes; for mass density: Vibrating tube method

CCCC[N+]1(C)CCCC1.O=S(=O)([N-]S(=O)(=O)C(F)(F)F)C(F)(F)F
Details	viscosity
273.15 K, 100 kPa, Falling or rolling sphere viscometry	319.28 mPa·s and 318.72 mPa·s and 320.44 mPa·s
273.15 K, 101.3 kPa, Concentric cylinders viscometry	322.4 mPa·s
273.15 K, 820 kPa, Falling or rolling sphere viscometry	318.29 mPa·s
273.15 K, 10850 kPa, Falling or rolling sphere viscometry	378.12 mPa·s
273.15 K, 20760 kPa, Falling or rolling sphere viscometry	441.79 mPa·s
273.15 K, 32190 kPa, Falling or rolling sphere viscometry	542.04 mPa·s
273.15 K, 40240 kPa, Falling or rolling sphere viscometry	621.51 mPa·s
273.15 K, 45000 kPa, Falling or rolling sphere viscometry	677.25 mPa·s
273.15 K, 50310 kPa, Falling or rolling sphere viscometry	729.34 mPa·s
273.15 K, 59200 kPa, Falling or rolling sphere viscometry	837.7 mPa·s
273.15 K, 60550 kPa, Falling or rolling sphere viscometry	855.99 mPa·s
273.15 K, 69280 kPa, Falling or rolling sphere viscometry	983.67 mPa·s
273.15 K, 70310 kPa, Falling or rolling sphere viscometry	1008.7 mPa·s
273.15 K, 80520 kPa, Falling or rolling sphere viscometry	1184.8 mPa·s
278.15 K, 100 kPa, Falling or rolling sphere viscometry	224.84 mPa·s and 224.85 mPa·s
278.15 K, 101.3 kPa, Concentric cylinders viscometry	230.9 mPa·s
283.15 K, 100 kPa, Falling or rolling sphere viscometry	167.09 mPa·s [middle of 4 runs]
283.15 K, 101.3 kPa, Concentric cylinders viscometry	170.1 mPa·s
283.15 K, 10140 kPa, Falling or rolling sphere viscometry	192.43 mPa·s
283.15 K, 19970 kPa, Falling or rolling sphere viscometry	222.97 mPa·s
283.15 K, 29990 kPa, Falling or rolling sphere viscometry	259.18 mPa·s
283.15 K, 40620 kPa, Falling or rolling sphere viscometry	303.3 mPa·s
283.15 K, 50520 kPa, Falling or rolling sphere viscometry	350.45 mPa·s
283.15 K, 59770 kPa, Falling or rolling sphere viscometry	398.94 mPa·s
283.15 K, 70190 kPa, Falling or rolling sphere viscometry	463.39 mPa·s
283.15 K, 78710 kPa, Falling or rolling sphere viscometry	517.26 mPa·s
283.15 K, 89720 kPa, Falling or rolling sphere viscometry	620.7 mPa·s
283.15 K, 89960 kPa, Falling or rolling sphere viscometry	604.22 mPa·s
283.15 K, 100390 kPa, Falling or rolling sphere viscometry	708.87 mPa·s and 702.53 mPa·s
288.15 K, 101.3 kPa, Concentric cylinders viscometry	128.4 mPa·s
293.15 K, 100 kPa, Falling or rolling sphere viscometry	99.81 mPa·s and 99.92 mPa·s
293.15 K, 101.3 kPa, Concentric cylinders viscometry	98.95 mPa·s and 99 mPa·s
298.15 K, 100 kPa, Falling or rolling sphere viscometry	76.63 mPa·s [middle of 5 runs]
298.15 K, 101.3 kPa, Concentric cylinders viscometry	77.83 mPa·s
298.15 K, 860 kPa, Falling or rolling sphere viscometry	77.22 mPa·s
298.15 K, 10370 kPa, Falling or rolling sphere viscometry	87.96 mPa·s
298.15 K, 20760 kPa, Falling or rolling sphere viscometry	100.93 mPa·s
298.15 K, 30700 kPa, Falling or rolling sphere viscometry	114.96 mPa·s
298.15 K, 40660 kPa, Falling or rolling sphere viscometry	130.58 mPa·s
298.15 K, 50630 kPa, Falling or rolling sphere viscometry	148.26 mPa·s
298.15 K, 60600 kPa, Falling or rolling sphere viscometry	167.95 mPa·s
298.15 K, 70390 kPa, Falling or rolling sphere viscometry	189.46 mPa·s
298.15 K, 80180 kPa, Falling or rolling sphere viscometry	213.75 mPa·s
298.15 K, 90600 kPa, Falling or rolling sphere viscometry	242.18 mPa·s
298.15 K, 100230 kPa, Falling or rolling sphere viscometry	271.62 mPa·s
303.15 K, 100 kPa, Falling or rolling sphere viscometry	62.82 mPa·s and 62.63 mPa·s
303.15 K, 101.3 kPa, Concentric cylinders viscometry	62.26 mPa·s
313.15 K, 100 kPa, Falling or rolling sphere viscometry	41.27 mPa·s and 41.24 mPa·s
313.15 K, 101.3 kPa, Concentric cylinders viscometry	41.72 mPa·s
323.15 K, 100 kPa, Falling or rolling sphere viscometry	29.04 mPa·s [middle of 5 runs]
323.15 K, 101.3 kPa, Concentric cylinders viscometry	29.42 mPa·s
323.15 K, 10520 kPa, Falling or rolling sphere viscometry	32.31 mPa·s
323.15 K, 20600 kPa, Falling or rolling sphere viscometry	36.21 mPa·s
323.15 K, 29970 kPa, Falling or rolling sphere viscometry	40.16 mPa·s
323.15 K, 39910 kPa, Falling or rolling sphere viscometry	44.72 mPa·s
323.15 K, 50590 kPa, Falling or rolling sphere viscometry	50.06 mPa·s
323.15 K, 60550 kPa, Falling or rolling sphere viscometry	55.73 mPa·s
323.15 K, 70490 kPa, Falling or rolling sphere viscometry	61.77 mPa·s
323.15 K, 80450 kPa, Falling or rolling sphere viscometry	68.24 mPa·s
323.15 K, 90470 kPa, Falling or rolling sphere viscometry	75.36 mPa·s
323.15 K, 100400 kPa, Falling or rolling sphere viscometry	82.99 mPa·s
333.15 K, 100 kPa, Falling or rolling sphere viscometry	21.31 mPa·s and 21.3 mPa·s
333.15 K, 101.3 kPa, Concentric cylinders viscometry	21.64 mPa·s
343.15 K, 100 kPa, Falling or rolling sphere viscometry	16.14 mPa·s and 16.13 mPa·s
343.15 K, 101.3 kPa, Concentric cylinders viscometry	16.46 mPa·s
348.15 K, 100 kPa, Falling or rolling sphere viscometry	14.07 mPa·s and 14.06 mPa·s
348.15 K, 10850 kPa, Falling or rolling sphere viscometry	15.68 mPa·s
348.15 K, 11990 kPa, Falling or rolling sphere viscometry	15.82 mPa·s
348.15 K, 21760 kPa, Falling or rolling sphere viscometry	17.54 mPa·s
348.15 K, 29210 kPa, Falling or rolling sphere viscometry	18.8 mPa·s
348.15 K, 38020 kPa, Falling or rolling sphere viscometry	20.38 mPa·s
348.15 K, 49600 kPa, Falling or rolling sphere viscometry	22.9 mPa·s
348.15 K, 64630 kPa, Falling or rolling sphere viscometry	26.45 mPa·s
348.15 K, 73060 kPa, Falling or rolling sphere viscometry	28.44 mPa·s
348.15 K, 85040 kPa, Falling or rolling sphere viscometry	31.53 mPa·s
348.15 K, 102920 kPa, Falling or rolling sphere viscometry	36.8 mPa·s
353.15 K, 100 kPa, Falling or rolling sphere viscometry	12.73 mPa·s and 12.67 mPa·s
353.15 K, 101.3 kPa, Concentric cylinders viscometry	12.91 mPa·s
363.15 K, 101.3 kPa, Concentric cylinders viscometry	10.35 mPa·s

Details	electrical conductivity [S/m]	mass density
273.15 K	0.0741	1416.89 kg/m3 and 1416.94 kg/m3 and 1416.7 kg/m3
278.15 K	0.101	1412.1 kg/m3
283.15 K	0.134	1407.76 kg/m3 and 1407.82 kg/m3 and 1407.6 kg/m3
288.15 K	0.174	1403.39 kg/m3 and 1403.2 kg/m3
293.14 K	0.221	–
293.15 K	–	1398.92 kg/m3 [middle of 4 runs]
298.14 K	0.276	–
298.15 K	0.275	1394.51 kg/m3 and 1394.4 kg/m3
303.15 K	0.338	1390.1 kg/m3 and 1390.17 kg/m3 and 1390 kg/m3
313.15 K	0.486	1381.31 kg/m3 and 1381.38 kg/m3 and 1381.2 kg/m3
323.14 K	0.667	–
323.15 K	–	1372.58 kg/m3 and 1372.67 kg/m3 and 1372.5 kg/m3
333.15 K	0.879	1363.89 kg/m3 and 1363.97 kg/m3 and 1363.9 kg/m3
343.14 K	1.12	–
343.15 K	–	1355.26 kg/m3 and 1355.36 kg/m3 and 1355.3 kg/m3
353.15 K	1.39	1346.69 kg/m3 and 1346.78 kg/m3 and 1346.8 kg/m3
363.15 K	–	1338.16 kg/m3 and 1338.25 kg/m3 and 1338.4 kg/m3
